ChEMBL document CHEMBL1201862, “PubChem BioAssay data set” (2004)
Values belong to the molecule of their own block, whether it stands above or below them. Activity calls are given as the source filed them.

Assays:
[1] = molecular target: T1, Short transient receptor potential channel 4 (Mus musculus, UniProt Q9QUQ5); assay: mouse TRPC4 channel inhibitors, dose response, cell-based, HEK293 TRPC4/mu-opioid, Fluo-4 calcium (AID 434942); type: functional;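 note: potency of inhibitors blocking the TRPC4 calcium response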
T1 sequence (Q9QUQ5 whole entry): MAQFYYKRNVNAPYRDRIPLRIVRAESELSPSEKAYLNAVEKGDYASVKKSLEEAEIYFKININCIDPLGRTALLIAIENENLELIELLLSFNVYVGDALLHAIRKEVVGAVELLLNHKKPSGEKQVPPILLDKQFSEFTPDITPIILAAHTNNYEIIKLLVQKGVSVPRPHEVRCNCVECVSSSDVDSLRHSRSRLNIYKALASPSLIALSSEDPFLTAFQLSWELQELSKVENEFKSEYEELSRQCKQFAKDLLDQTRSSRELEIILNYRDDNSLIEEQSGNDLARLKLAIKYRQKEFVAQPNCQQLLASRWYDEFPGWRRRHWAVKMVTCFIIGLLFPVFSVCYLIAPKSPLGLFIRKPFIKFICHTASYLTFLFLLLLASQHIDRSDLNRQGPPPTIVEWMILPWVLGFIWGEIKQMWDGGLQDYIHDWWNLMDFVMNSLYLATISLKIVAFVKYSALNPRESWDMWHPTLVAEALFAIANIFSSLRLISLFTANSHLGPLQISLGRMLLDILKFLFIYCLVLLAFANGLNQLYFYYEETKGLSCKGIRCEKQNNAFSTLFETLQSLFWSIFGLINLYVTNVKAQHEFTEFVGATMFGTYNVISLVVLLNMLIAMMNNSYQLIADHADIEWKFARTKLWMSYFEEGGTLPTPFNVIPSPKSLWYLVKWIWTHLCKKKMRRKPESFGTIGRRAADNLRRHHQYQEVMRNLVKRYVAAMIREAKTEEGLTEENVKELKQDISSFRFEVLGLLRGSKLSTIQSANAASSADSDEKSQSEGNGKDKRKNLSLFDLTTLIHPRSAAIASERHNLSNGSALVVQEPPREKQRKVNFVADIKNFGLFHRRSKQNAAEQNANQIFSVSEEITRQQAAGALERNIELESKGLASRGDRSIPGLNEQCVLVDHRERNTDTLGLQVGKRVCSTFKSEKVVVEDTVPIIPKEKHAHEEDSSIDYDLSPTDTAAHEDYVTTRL

[2] = control 3'UTR Renilla luciferase suppression, dose response, counter-screen for Shn3 inhibitor project, cell-based, Clone20-Shn3RL, cherry-picked (AID 624133); type: functional
[3] = Shn3 3'UTR reporter inhibitors, dose response, cell-based, Clone20 osteoblasts, firefly luciferase, cherry-picked (AID 624132); type: functional;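 note: firefly luciferase luminescence from reporter carrying the Shn3 3'UTR in osteoblasts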
[4] = HepG2 cell cytotoxicity, dose response, cytotoxicity control for Shn3 inhibitor project, CellTiter-Glo, cherry-picked (AID 624134); type: functional, cell-based
Protein Wnt-3a = Protein Wnt-3a (Mus musculus, UniProt P27467); assay: Wnt3a-driven reporter signaling inhibition, dose response, selectivity assay for Gli-SUFU antagonist project, Wnt-LIGHT cells, luminescence (AID 651570); type: functional; conditions: read-out: IC50_Mean;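 note: Wnt-LIGHT reporter cells stimulated with conditioned medium from Wnt3a-producing cells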
Sequence of Protein Wnt-3a (P27467 whole entry): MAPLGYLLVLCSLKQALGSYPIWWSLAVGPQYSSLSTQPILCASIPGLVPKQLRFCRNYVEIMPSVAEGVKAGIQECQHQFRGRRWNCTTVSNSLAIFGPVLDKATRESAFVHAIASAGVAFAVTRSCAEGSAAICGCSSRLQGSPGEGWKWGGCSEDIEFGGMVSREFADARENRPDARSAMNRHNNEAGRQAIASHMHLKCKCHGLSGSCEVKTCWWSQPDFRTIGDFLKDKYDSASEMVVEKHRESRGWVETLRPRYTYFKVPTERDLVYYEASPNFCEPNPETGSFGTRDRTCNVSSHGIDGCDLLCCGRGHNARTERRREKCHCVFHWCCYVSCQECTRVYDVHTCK

[5] = cytotoxicity in HEK-293T cells, dose response, cytotoxicity control for BCR NF-kB inhibitor project, luminescence, B-cell screen hits (AID 489021); type: functional, cell-based;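 note: HEK-293T cells carrying an NF-kB luciferase reporter; cells exposed to compound for about 14 hours before viability readout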
[6] = molecular target: T2, Ubiquitin-conjugating enzyme E2 N (Homo sapiens, UniProt P61088); type: functional;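 note: Dose-response confirmation in a TR-FRET assay detecting UBC13-driven polyubiquitin chain formation, inhibition measured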
T2 sequence (P61088 whole entry): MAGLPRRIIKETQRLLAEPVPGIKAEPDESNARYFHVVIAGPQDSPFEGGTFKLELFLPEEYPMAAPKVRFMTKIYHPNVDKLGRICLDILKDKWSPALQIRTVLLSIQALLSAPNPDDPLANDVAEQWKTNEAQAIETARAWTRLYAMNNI

P388/ADR = assay: cells; type: functional; conditions: Mus musculus
SN12K1 = assay: cells; type: functional; conditions: Homo sapiens
P388 = assay: cells; type: functional; conditions: Mus musculus
[7] = molecular target: T3, Histone-lysine N-methyltransferase NSD2 (Homo sapiens, UniProt O96028); type: biochemical
T3 sequence (O96028 whole entry): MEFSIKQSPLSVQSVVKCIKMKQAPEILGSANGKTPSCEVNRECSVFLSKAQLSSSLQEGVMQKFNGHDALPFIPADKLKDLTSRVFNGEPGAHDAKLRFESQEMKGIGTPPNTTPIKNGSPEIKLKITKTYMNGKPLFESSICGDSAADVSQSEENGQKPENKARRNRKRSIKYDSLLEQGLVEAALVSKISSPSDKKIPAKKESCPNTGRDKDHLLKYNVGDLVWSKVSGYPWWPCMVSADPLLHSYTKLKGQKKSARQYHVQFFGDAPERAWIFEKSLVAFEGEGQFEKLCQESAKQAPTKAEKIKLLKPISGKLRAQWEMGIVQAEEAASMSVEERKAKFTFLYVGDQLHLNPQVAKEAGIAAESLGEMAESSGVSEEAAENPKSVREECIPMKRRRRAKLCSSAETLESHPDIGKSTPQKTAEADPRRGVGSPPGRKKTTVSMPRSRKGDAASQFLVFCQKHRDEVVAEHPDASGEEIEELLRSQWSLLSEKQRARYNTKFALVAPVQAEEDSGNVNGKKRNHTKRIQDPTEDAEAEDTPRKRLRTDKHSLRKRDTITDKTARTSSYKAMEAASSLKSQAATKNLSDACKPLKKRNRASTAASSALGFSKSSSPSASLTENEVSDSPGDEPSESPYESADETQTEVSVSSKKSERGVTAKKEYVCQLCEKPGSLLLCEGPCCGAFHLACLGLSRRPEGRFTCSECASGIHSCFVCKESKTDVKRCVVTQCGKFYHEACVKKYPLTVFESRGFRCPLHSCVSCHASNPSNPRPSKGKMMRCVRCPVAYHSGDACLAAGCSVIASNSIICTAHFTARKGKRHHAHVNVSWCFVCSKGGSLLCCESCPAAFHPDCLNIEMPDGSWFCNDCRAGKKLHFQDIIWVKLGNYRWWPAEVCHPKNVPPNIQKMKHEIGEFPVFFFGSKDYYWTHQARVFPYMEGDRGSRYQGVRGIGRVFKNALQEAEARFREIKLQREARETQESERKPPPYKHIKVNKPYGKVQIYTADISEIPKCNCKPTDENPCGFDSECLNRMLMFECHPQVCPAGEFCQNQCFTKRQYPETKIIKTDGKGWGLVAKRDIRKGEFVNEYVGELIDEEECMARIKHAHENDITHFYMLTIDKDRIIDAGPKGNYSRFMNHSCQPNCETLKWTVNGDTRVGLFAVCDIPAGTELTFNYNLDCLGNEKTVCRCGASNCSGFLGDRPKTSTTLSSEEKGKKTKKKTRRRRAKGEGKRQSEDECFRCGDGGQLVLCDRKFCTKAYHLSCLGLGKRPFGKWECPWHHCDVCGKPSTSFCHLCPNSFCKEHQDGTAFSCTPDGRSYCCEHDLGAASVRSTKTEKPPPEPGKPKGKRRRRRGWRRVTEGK

Escherichia coli = assay: microbe, parasite or virus in culture

EC50 [1]: 0.0947 µM (active)
Structure (SMILES): CN(C)C(CNC(=O)c1ccccc1OCc1ccc(Cl)cc1)c1ccco1 (stereo not given)

Structure (SMILES): CN(CCOc1ccc(Cl)cc1)C(=O)c1cccc(S(=O)(=O)N2CCN(c3ccc(F)cc3)CC2)c1
AC50 [2]: 6.21 µM (active)
AC50 [3]: 1.77 µM (active)
AC50 [4]: 2.46 µM (active)
IC50 (Protein Wnt-3a): 8.36 µM (active)

Structure (SMILES): CCN(CC(=O)Nc1c(F)cccc1F)C(=O)C1(c2ccccc2)CC1
IC50 [5]: > 80 µM (inactive)

IC50 [6]: > 20 µM (inactive)
Structure (SMILES): Cc1ncc(S(=O)(=O)c2ccc(Cl)cc2)c(N)n1

Structure (SMILES): COc1ccc(O)c(C#N)c1C#N.COc1ccc(OC)c(C#N)c1C#N
GI50 (P388/ADR): > 100 µM (inactive)
GI50 (SN12K1): > 100 µM (inactive)
GI50 (P388): > 100 µM (inactive)

Structure (SMILES): CNC(=O)OCc1c(CO)nc(SC)n1C
GI50 (P388/ADR): > 100 µM (inactive)
GI50 (SN12K1): > 100 µM (inactive)
GI50 (P388): > 100 µM (inactive)

Structure (SMILES): O=C(O)c1ccccc1/N=C/c1ccc(N(CCCl)CCCl)cc1
GI50 (P388/ADR): 24.8 µM (inactive)
GI50 (SN12K1): > 100 µM (inactive)
GI50 (P388): 19.2 µM (inactive)

Structure (SMILES): NN
GI50 (P388/ADR): 68.5 µM (inactive)
GI50 (SN12K1): 96.8 µM (inactive)
GI50 (P388): 105 µM (inactive)

Structure (SMILES): Brc1ccc2[nH]c3c(C4=NCCC4)nccc3c2c1
GI50 (P388/ADR): 9.57 µM (inactive)
GI50 (SN12K1): 9.98 µM (inactive)
GI50 (P388): 9.51 µM (inactive)

Structure (SMILES): C#CCN1CCN(C(=S)N/N=C(\C)c2ccccn2)CC1
GI50 (P388/ADR): < 0.01 µM (active)
GI50 (SN12K1): 0.01 µM (active)
GI50 (P388): < 0.01 µM (active)

AC50 [7]: 8.81 µM (active)
Structure (SMILES): O=C(CCCCCN1C(=O)C2C3C=CC(C3)C2C1=O)Nc1ccc2ncccc2c1 (stereo not given)

Structure (SMILES): CC(C)=CC1C(C(=O)O)C1(C)C (stereo not given) [CHRYSANTHEMIC ACID]
GI50 (P388/ADR): 488 µM (inactive)
GI50 (SN12K1): > 750 µM (inactive)
GI50 (P388): > 750 µM (inactive)

Structure (SMILES): C[C@@H]1CN(c2c(F)c(F)c3c(=O)c(C(=O)O)cn(C4CC4)c3c2F)C[C@H](C)N1 [ORBIFLOXACIN]
AC50 (Escherichia coli): 0.657 µM (active)
